How the values were obtained:
[1] = In vitro liver microsomal stability assay, human; type: in vitro ADME
Outline: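 Test compound at […] was incubated at 37° C with 0.5 mg/mL rat or human liver microsomes, 1 mM NADPH and 3 mM MgCl2, in triplicate, sampled 0–60 min. Remaining parent was quantified by LC-MS/MS, giving half-life and microsomal and hepatic intrinsic clearance.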

[2] = tested on: SD rats; test: Loss of righting reflex in SD rats, intraperitoneal injection; type: in vivo; conditions: for rate of loss of righting reflex: within 4 h
From the text: To determine the threshold for the loss of righting reflex in SD rats after injection of compound 41 in order to evaluate the sedative effect and therapeutic safety window of the compound.
Male SD rats weighing 180-200 g, as test animals, were acclimatized for 7 days after arriving at the animal facility and were randomly divided into groups based on weight one day before testing. The rats were fasted for half a day before testing but had access to water. Doses of compound 41 were designed in a 0.8-fold gradient, and the doses were set at 23.5 mg/kg, 18.8 mg/kg, 15 mg/kg, 12 mg/kg, and 9.6 mg/kg. Observations were made on the loss of righting reflex within 4 h of intraperitoneally injecting compound 41 into the rats.

[3] = Pharmacokinetic study in SD rats (plasma and brain); type: in vivo
Method: Male SD rats weighing about 250 g were randomly divided into groups of 3.
The intravenous dose was 6.1 mol/kg, and the intragastric dose was 24.4 μmol/kg. Animals were fasted for 12 h before administration, with free access to water, and were fed together 3 h post-administration. Blood samples of about 0.3 mL were collected at 5 min (intravenous), 15 min, 30 min, 1 h, 2 h, 3 h, 4 h, 6 h, 8 h, 12 h, and 24 h post-administration into heparinized EP tubes and centrifuged at 13,500 rpm for 10 min to separate the plasma. Rat brain tissue samples were collected after cardiac perfusion at 30 min, 2 h, and 6 h. After pretreatment, the samples were analyzed by LC-MS/MS to determine the concentration of the test compound in the plasma and brain, and pharmacokinetic parameters were calculated.

[4] = male, rat, 6.1 umol/kg, IV 6.1 μmol/kg, plasma
[5] = male, rat, plasma, 6.1 umol/kg, IV 6.1 μmol/kg
[6] = male, rat, plasma, po, 24.4 umol/kg, IG 24.4 μmol/kg
[7] = male, rat, po, 24.4 umol/kg, IG 24.4 μmol/kg, plasma

For `C[C@@]1(O)CC[C@H]2[C@H](CC[C@@H]3[C@@H]2CC[C@]2(C)[C@@H](C(=O)Cn4cnn(-c5cc(F)nc(F)c5)c4=O)CC[C@@H]32)C1` [Compound 41], the CLint scaled at 1 µM ([1]; Human liver microsomes) was under 6.75 mL/min/kg, the half-life at 1 µM ([1]; Human liver microsomes) was over 3.1 h and the “Remaining amount % at 60 min” value ([1]; Human liver microsomes 0.5 mg/mL, NADPH) was 98.2%. The microsomal CLint at 1 µM ([1]; Human liver microsomes, read-out: CLint(mic)) was under 7.5 µL/min/mg, the “rate of loss of righting reflex” value ([2]; 9.6 mg/kg intraperitoneal) was 0 and the “rate of loss of righting reflex” value ([2]; 12 mg/kg intraperitoneal) was 0. For the same compound, the “rate of loss of righting reflex” value ([2]; 15 mg/kg intraperitoneal) was 30%, the “rate of loss of righting reflex” value ([2]; 18.8 mg/kg intraperitoneal) was 50% and the “rate of loss of righting reflex” value ([2]; 23.5 mg/kg intraperitoneal) was 80%. The “therapeutic safety window (in words)” value ([2]; intraperitoneal) was “relatively wide”, the “threshold dose for the loss of righting reflex” value ([2]; intraperitoneally injected) was 12 mg/kg and the “brain penetration capability (in words)” value ([3]; IG 24.4 μmol/kg) was “strong”. It also gave a Brain concentration ([3]; IG 24.4 μmol/kg, 30 min) of 2565 ± 452 nmol/kg, a Brain concentration ([3]; IG 24.4 μmol/kg, 2 h) of 4533 ± 720 nmol/kg and a Brain concentration ([3]; IG 24.4 μmol/kg, 6 h) of 2692 ± 259 nmol/kg. It also gave an AUC(0-inf) [3, 4] of 10.1 ± 2.38 µM·h, an AUC(0-t) [3, 4] of 9.71 ± 2.26 µM·h and a C0 [3, 4] of 2.11 ± 0.537 µM. For the same compound, the Kp at 30 min ([3]; male, rat, brain/plasma, oral, IG 24.4 μmol/kg, 30 min, read-out: Brain-to-blood ratio) was 0.8, the Kp at 2 h ([3]; male, rat, brain/plasma, oral, IG 24.4 μmol/kg, 2 h, read-out: Brain-to-blood ratio) was 1.2 and the Kp at 6 h ([3]; male, rat, brain/plasma, oral, IG 24.4 μmol/kg, 6 h, read-out: Brain-to-blood ratio) was 1.8. It also gave an MRT last [3, 5] of 6.3 ± 0.83 h, a half-life [3, 5] of 5.17 ± 0.55 h and a bioavailability ([3]; male, rat, plasma, oral, IG 24.4 μmol/kg vs IV 6.1 μmol/kg, read-out: F (absolute bioavailability)) of 84%. For the same compound, the concentration at 30 min ([3]; male, rat, plasma, oral, IG 24.4 μmol/kg, 30 min) was 3.2 ± 1.16 µM, the concentration at 2 h ([3]; male, rat, plasma, oral, IG 24.4 μmol/kg, 2 h) was 3.81 ± 0.67 µM and the concentration at 6 h ([3]; male, rat, plasma, oral, IG 24.4 μmol/kg, 6 h) was 1.48 ± 0.261 µM. It also gave an MRT last [3, 6] of 7.61 ± 0.6 h, a Tmax [3, 6] of 1.67 ± 0.58 h and a half-life [3, 6] of 6.11 ± 1.44 h. For the same compound, the AUC(0-inf) [3, 7] was 35.1 ± 7.03 µM·h, the AUC(0-t) [3, 7] was 32.5 ± 5.2 µM·h and the Cmax [3, 7] was 3.28 ± 0.324 µM.
